Tests used:
dopamine receptors = settings: chronic administration, aging mice; cited from earlier work
[1] = test system: thyroid stimulating hormone (TSH)
Experimental: A study was performed of this invention using forty-eight male college-aged volunteers. The participants were divided into 4 groups of 12 subjects. The groups reported to the lab after an overnight fast and were then administered the following: 200 mg of Caffeine, 250 mg of A-GPC, 500 mg of A-GPC or placebo. One hour and two hours post administration blood was drawn from a vein in the antecubital space into a serum separator tube, this was allowed to stand for 15 minutes, then centrifuged and the serum drawn off and frozen at −35 degrees Celsius for later evaluation.
At the conclusion of data collection, the serum aliquots were thawed and a commercially available high-sensitivity ELISA was uses to quantify TSH levels (Eagle Biosciences TSH Ultrasensitive ELISA kit). Samples were tested in duplicate with inter and intra place CV % of less than 10. A repeated measures Anova was used to assess TSH level by group.

[2] = in vivo; cited from earlier work

C[N+](C)(C)CCOP(=O)(O)OP(=O)([O-])OC[C@H]1O[C@@H](n2ccc(N)nc2=O)[C@H](O)[C@@H]1O [CDP-choline]
dopamine receptors in the brain (dopamine receptors): increase dopamine receptors in the brain

C[N+](C)(C)CCOP(=O)([O-])OC[C@H](O)CO [A-GPC, Alpha Glycerylphosphoryl Choline]
TSH blood levels (effect) ([1]; 250 mg A-GPC, single administration): insufficient to reduce blood TSH
TSH level, group average ([1]; 500 mg A-GPC group, 12 males): 2.3
number of males exhibiting TSH levels lower than 2.0 ([1]; 500 mg A-GPC group, 12 males): 5 of the 12
crossing the blood brain barrier [2]: capable of crossing the blood brain barrier
incorporation into brain phospholipids after administration [2]: incorporated into brain phospholipids within twenty-four hours
